Reference: patent publication US8188102B2, “Amide derivative for inhibiting the growth of cancer cells” (Hanmi Holdings Co., Ltd., priority 2007, dated 2012)

How the values were obtained:
[1] = tested on: SK-Br3 breast cancer cell line; assay: Cancer cell growth inhibition, SK-Br3 (SRB); settings: Homo sapiens, SK-BR-3, 72 h, read-out: ID50 (nM) SK-Br3
[2] = tested on: A431 skin cancer cell line; assay: Cancer cell growth inhibition, A431 (SRB); settings: Homo sapiens, A-431, 72 h, read-out: ID50 (nM) A431

Row | SMILES | IC50 [1] [nM] | IC50 [2] [nM]
1 | C=CC(=O)N1CCC(Oc2cc3c(Nc4ccc(C(C)C)cc4)ncnc3cc2OC)CC1 [Example 40, 1-(4-(4-(4-isopropylphenylamino)-7-methoxyquinazolin-6-yloxy)piperidin-1-yl)pro-2-pen-1-one] | 37 | 23
2 | C=CC(=O)N1CCC(Oc2cc3c(Nc4cccc(SC)c4)ncnc3cc2OC)CC1 [Example 68, 1-(4-(7-methoxy-4-(3-(methylthio)phenylamino)quinazolin-6-yloxy)piperidin-1-yl)pro-2-pen-1-one] | 10 | 305
3 | C=CC(=O)N1CCC(Oc2cc3c(N[C@H](C)c4ccccc4)ncnc3cc2OC)CC1 [Example 35, (R)-1-(4-(7-methoxy-4-(1-phenylethylamino)quinazolin-6-yloxy)piperidin-1-yl)pro-2-pen-1-one] | 3 | 514
4 | C=CC(=O)N1CCC(Oc2cc3c(Nc4ccc(Cl)c(C#N)c4)ncnc3cc2OC)CC1 [Example 67, 5-(6-(1-acryloylpiperidin-4-yloxy)-7-methoxyquinazolin-4-ylamino)-2-chlorobenzonitrile] | 10 | 35
5 | COc1cc2ncnc(Nc3ccc(Cl)c(Cl)c3F)c2cc1OC1CCN(C(=O)/C=C/C(=O)O)CC1 [Example 87, (E)-4-(4-(4-(3,4-dichloro-2-fluorophenylamino)-7-methoxyquinazolin-6-yloxy)piperidin-1-yl)-4-oxobut-2-enoic acid] | 469 | 516
6 | C#Cc1cccc(Nc2ncnc3cc(OC)c(OC4CCN(C(=O)C=C)CC4)cc23)c1 [Example 37, 1-(4-(4-(3-ethynylphenylamino)-7-methoxyquinazolin-6-yloxy)piperidin-1-yl)pro-2-pen-1-one] | 79 | 52
7 | C=CC(=O)N1CC[C@H](Oc2cc3c(Nc4ccc(F)c(Cl)c4F)ncnc3cc2OC)C[C@H]1C(=O)NCCC [Example 123, (2S,4S)-1-acryloyl-4-(4-(3-chloro-2,4-difluorophenylamino)-7-methoxyquinazolin-6-yloxy)-N-propylpiperidin-2-carboxamide] | 5 | 12
8 | C=CC(=O)N1CCC(Oc2cc3c(Nc4ccc(F)c(C#N)c4)ncnc3cc2OC)CC1 [Example 66, 5-(6-(1-acryloylpiperidin-4-yloxy)-7-methoxyquinazolin-4-ylamino)-2-fluorobenzonitrile] | 1 | 8
9 | COc1cc2ncnc(Nc3ccc(F)c(Cl)c3F)c2cc1OC1CN(C(=O)/C=C/Cl)C1 [Example 33, (E)-3-chloro-1-(3-(4-(3-chloro-2,4-difluorophenylamino)-7-methoxyquinazolin-6-yloxy)azetidin-1-yl)pro-2-pen-1-one] | 35 | 44
10 | COc1cc2ncnc(Nc3ccc(F)c(Cl)c3F)c2cc1O[C@H]1CCN(C(=O)C#CCN(C)C)C1 [Example 5, 1-((3S)-3-(4-(3-chloro-2,4-difluorophenylamino)-7-methoxyquinazolin-6-yloxy)pyrrolidin-1-yl)-4-(dimethylamino)but-2-yn-1-one] | 128 | 33
11 | C=CC(=O)N1CC[C@@H](Oc2cc3c(Nc4ccc(Br)cc4F)ncnc3cc2OC)C[C@@H]1C(N)=O [Example 140, (2R,4R)-1-acryloyl-4-(4-(4-bromo-2-fluorophenylamino)-7-methoxyquinazolin-6-yloxy)piperidin-2-carboxamide] | 0.3 | 1.1
12 | C=CC(=O)N1CCC(Oc2cc3c(Nc4cccc(Cl)c4C)ncnc3cc2OC)CC1 [Example 63, 1-(4-(4-(3-chloro-2-methylphenylamino)-7-methoxyquinazolin-6-yloxy)piperidin-1-yl)pro-2-pen-1-one] | 1 | 9
13 | COc1cc2ncnc(Nc3ccc(Cl)c(Cl)c3F)c2cc1OC1CCN(C(=O)/C=C\C(=O)O)CC1 [Example 86, (Z)-4-(4-(4-(3,4-dichloro-2-fluorophenylamino)-7-methoxyquinazolin-6-yloxy)piperidin-1-yl)-4-oxobut-2-enoic acid] | > 1000 | 322
14 | COc1cc2ncnc(Nc3ccc(F)c(Cl)c3F)c2cc1OC1CCN(C(=O)/C=C/C(=O)NO)CC1 [Example 88, (E)-4-(4-(4-(3-chloro-2,4-difluorophenylamino)-7-methoxyquinazolin-6-yloxy)piperidin-1-yl)-N-hydroxy-4-oxobut-2-enamide] | > 1000 | 187
15 | C=CC(=O)N1CCC(Oc2cc3c(Nc4ccccc4Cl)ncnc3cc2OC)CC1 [Example 69, 1-(4-(4-(2-chlorophenylamino)-7-methoxyquinazolin-6-yloxy)piperidin-1-yl)pro-2-pen-1-one] | 1.7 | 65
16 | C=CC(=O)N1CC[C@H](Oc2cc3c(Nc4ccc(F)c(Cl)c4F)ncnc3cc2OC)C[C@H]1C(=O)NCCCO [Example 131, (2S,4S)-1-acryloyl-4-(4-(3-chloro-2,4-difluorophenylamino)-7-methoxyquinazolin-6-yloxy)-N-(3-hydroxypropyl)piperidin-2-carboxamide] | 0.5 | 20

Row | SMILES | IC50 [1] [nM] | IC50 [2] [nM]
17 | C=CC(=O)N1CC[C@@H](Oc2cc3c(Nc4ccc(F)c(Cl)c4F)ncnc3cc2OC)C1 [Example 20] | 57 | 222
18 | C=CC(=O)N1CCC(Oc2cc3c(Nc4ccc(O)cc4Cl)ncnc3cc2OC)CC1 [Example 52, 1-(4-(4-(2-chloro-4-hydroxyphenylamino)-7-methoxyquinazolin-6-yloxy)piperidin-1-yl)pro-2-pen-1-one] | 30 | 176
19 | C=CC(=O)N1CCCC(Oc2cc3c(Nc4ccc(F)c(Cl)c4F)ncnc3cc2OC)C1 (stereo not shown) [Example 18, 1-(3-(4-(3-chloro-2,4-difluorophenylamino)-7-methoxyquinazolin-6-yloxy)piperidin-1-yl)pro-2-pen-1-one] | 19 | 6
20 | C=CC(=O)N1CCC(Oc2cc3c(Nc4ccc(F)c(F)c4F)ncnc3cc2OC)CC1 [Example 45, 1-(4-(7-methoxy-4-(2,3,4-trifluorophenylamino)quinazolin-6-yloxy)piperidin-1-yl)pro-2-pen-1-one] | 3 | 43
21 | COc1cc2ncnc(Nc3ccc(F)c(Cl)c3F)c2cc1OC1CN(C(=O)/C=C\CN(C)C)C1 [Example 112, (Z)-1-(3-(4-(3-chloro-2,4-difluorophenylamino)-7-methoxyquinazolin-6-yloxy)azetidin-1-yl)-4-(dimethylamino)but-2-en-1-one] | 0.8 | 15
22 | C=CC(=O)N1CCC(Oc2cc3c(Nc4ccc(C)c(C)c4)ncnc3cc2OC)CC1 [Example 47, 1-(4-(4-(3,4-dimethylphenylamino)-7-methoxyquinazolin-6-yloxy)piperidin-1-yl)pro-2-pen-1-one] | 10 | 19
23 | C=CC(=O)N1CC(Oc2cc3c(Nc4ccc(F)c(Cl)c4F)ncnc3cc2O)C1 [Example 115, 1-(3-(4-(3-chloro-2,4-difluorophenylamino)-7-hydroxyquinazolin-6-yloxy)azetidin-1-yl)prop-2-en-1-one] | 93 | 381
24 | COc1cc2ncnc(Nc3cccc(Cl)c3F)c2cc1OC1CN(C(=O)/C=C/CN(C)C)C1 [Example 102, (E)-1-(3-(4-(3-chloro-2-fluorophenylamino)-7-methoxyquinazolin-6-yloxy)azetidin-1-yl)-4-(dimethylamino)but-2-en-1-one] | 8 | 9
25 | C=CC(=O)N1CCC(Oc2cc3c(Nc4ccc(Cl)cc4)ncnc3cc2OC)CC1 [Example 70, 1-(4-(4-(4-chlorophenylamino)-7-methoxyquinazolin-6-yloxy)piperidin-1-yl)pro-2-pen-1-one] | 2.1 | 4.6
26 | C=CC(=O)N1CC(Oc2cc3c(Nc4cccc(C#N)c4)ncnc3cc2OC)C1 [Example 27, 3-(6-(1-acryloylazetidin-3-yloxy)-7-methoxyquinazolin-4-ylamino)benzonitrile] | 3 | 17
27 | COc1cc2ncnc(Nc3ccc(F)c(Cl)c3F)c2cc1O[C@H]1CCN(C(=O)C#CCCN2CCN(C)CC2)C1 [Example 4, 1-((3S)-3-(4-(3-chloro-2,4-difluorophenylamino)-7-methoxyquinazolin-6-yloxy)pyrrolidin-1-yl)-5-(4-methylpiperazin-1-yl)pent-2-yn-1-one] | 604 | 53
28 | C=CC(=O)N1CCC(Oc2cc3c(Nc4ccc(Oc5ccccc5)cc4)ncnc3cc2OC)CC1 [Example 48, 1-(4-(7-methoxy-4-(4-phenoxyphenylamino)quinazolin-6-yloxy)piperidin-1-yl)pro-2-pen-1-one] | 8 | > 1000
29 | C=CC(=O)N1CCC(Oc2cc3c(Nc4cc(OC)c(Cl)cc4OC)ncnc3cc2OC)CC1 [Example 38, 1-(4-(4-(4-chloro-2,5-dimethoxyphenylamino)-7-methoxyquinazolin-6-yloxy)piperidin-1-yl)pro-2-pen-1-one] | > 10000 | > 10000
30 | C=CC(=O)N1CCC(Oc2cc3c(Nc4ccc(Cl)cc4O)ncnc3cc2OC)CC1 [Example 53, 1-(4-(4-(4-chloro-2-hydroxyphenylamino)-7-methoxyquinazolin-6-yloxy)piperidin-1-yl)pro-2-pen-1-one] | 21 | 32
31 | C=CC(=O)N1CC[C@@H](Oc2cc3c(Nc4ccc(F)c(Cl)c4F)ncnc3cc2OC)C[C@@H]1C(=O)O [Example 134, (2R,4R)-1-acryloyl-4-(4-(3-chloro-2,4-difluorophenylamino)-7-methoxyquinazolin-6-yloxy)piperidin-2-carboxylic acid] | 4 | 979
32 | C=CC(=O)N1CCC(Oc2cc3c(Nc4cccc(S)c4)ncnc3cc2OC)CC1 [Example 76, 1-(4-(4-(3-mercaptophenylamino)-7-methoxyquinazolin-6-yloxy)piperidin-1-yl)pro-2-pen-1-one] | 100 | 300
